{
  "source": "paper PMC5762315",
  "about": "“Inhibition of polo-like kinase 4 (PLK4): a new therapeutic option for rhabdoid tumors and pediatric medulloblastoma” (Oncotarget, 2017)",
  "experiment_in_all_cases": "LanthaScreen Eu Kinase Binding Assay, panel of 486 biochemical kinase assays",
  "key": {"various kinases [1]": {"biological_target": "various kinases (Homo sapiens, UniProt Q8NI60)", "conditions": "ADCK3"}, "various kinases [2]": {"biological_target": "various kinases (Homo sapiens, UniProt Q16513)", "sequence (Q16513 whole entry)": "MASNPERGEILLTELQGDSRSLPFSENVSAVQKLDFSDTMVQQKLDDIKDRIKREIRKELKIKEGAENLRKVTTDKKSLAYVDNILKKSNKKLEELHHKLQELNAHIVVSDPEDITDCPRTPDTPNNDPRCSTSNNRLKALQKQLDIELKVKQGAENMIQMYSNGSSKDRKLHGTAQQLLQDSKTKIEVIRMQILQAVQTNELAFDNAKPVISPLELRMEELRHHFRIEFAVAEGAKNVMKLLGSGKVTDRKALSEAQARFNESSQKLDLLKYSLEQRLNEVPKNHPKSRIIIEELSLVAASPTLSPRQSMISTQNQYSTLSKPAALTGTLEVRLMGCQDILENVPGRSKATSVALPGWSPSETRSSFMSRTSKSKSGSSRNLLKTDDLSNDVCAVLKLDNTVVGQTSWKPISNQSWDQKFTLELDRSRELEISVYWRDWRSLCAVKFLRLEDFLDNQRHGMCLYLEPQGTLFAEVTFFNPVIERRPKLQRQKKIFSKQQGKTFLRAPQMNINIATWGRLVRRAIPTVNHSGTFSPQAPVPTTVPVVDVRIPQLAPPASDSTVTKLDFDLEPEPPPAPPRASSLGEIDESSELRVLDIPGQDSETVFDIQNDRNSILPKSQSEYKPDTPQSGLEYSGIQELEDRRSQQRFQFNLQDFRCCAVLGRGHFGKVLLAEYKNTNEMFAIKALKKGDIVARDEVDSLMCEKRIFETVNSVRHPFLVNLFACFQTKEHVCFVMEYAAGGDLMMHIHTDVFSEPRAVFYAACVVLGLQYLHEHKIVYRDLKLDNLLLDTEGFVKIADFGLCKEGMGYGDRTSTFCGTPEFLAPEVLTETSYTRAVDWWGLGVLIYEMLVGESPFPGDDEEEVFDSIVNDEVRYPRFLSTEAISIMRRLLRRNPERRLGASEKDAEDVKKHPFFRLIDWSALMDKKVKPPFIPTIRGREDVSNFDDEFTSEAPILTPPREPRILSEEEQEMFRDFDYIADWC", "conditions": "kinase PKN2 (PRK2); LanthaScreen Binding"}, "various kinases [3]": {"biological_target": "various kinases (Homo sapiens, UniProt P49336)", "conditions": "CDK8/cyclin C"}, "various kinases [4]": {"biological_target": "various kinases (Homo sapiens, UniProt P06493)", "conditions": "CDK1/cyclin A2"}, "various kinases [5]": {"biological_target": "various kinases (Homo sapiens, UniProt Q2M2I8)", "conditions": "AAK1"}, "various kinases [6]": {"biological_target": "various kinases (Homo sapiens, UniProt P07949, V804M)", "sequence (P07949 29-1114 V804M)": "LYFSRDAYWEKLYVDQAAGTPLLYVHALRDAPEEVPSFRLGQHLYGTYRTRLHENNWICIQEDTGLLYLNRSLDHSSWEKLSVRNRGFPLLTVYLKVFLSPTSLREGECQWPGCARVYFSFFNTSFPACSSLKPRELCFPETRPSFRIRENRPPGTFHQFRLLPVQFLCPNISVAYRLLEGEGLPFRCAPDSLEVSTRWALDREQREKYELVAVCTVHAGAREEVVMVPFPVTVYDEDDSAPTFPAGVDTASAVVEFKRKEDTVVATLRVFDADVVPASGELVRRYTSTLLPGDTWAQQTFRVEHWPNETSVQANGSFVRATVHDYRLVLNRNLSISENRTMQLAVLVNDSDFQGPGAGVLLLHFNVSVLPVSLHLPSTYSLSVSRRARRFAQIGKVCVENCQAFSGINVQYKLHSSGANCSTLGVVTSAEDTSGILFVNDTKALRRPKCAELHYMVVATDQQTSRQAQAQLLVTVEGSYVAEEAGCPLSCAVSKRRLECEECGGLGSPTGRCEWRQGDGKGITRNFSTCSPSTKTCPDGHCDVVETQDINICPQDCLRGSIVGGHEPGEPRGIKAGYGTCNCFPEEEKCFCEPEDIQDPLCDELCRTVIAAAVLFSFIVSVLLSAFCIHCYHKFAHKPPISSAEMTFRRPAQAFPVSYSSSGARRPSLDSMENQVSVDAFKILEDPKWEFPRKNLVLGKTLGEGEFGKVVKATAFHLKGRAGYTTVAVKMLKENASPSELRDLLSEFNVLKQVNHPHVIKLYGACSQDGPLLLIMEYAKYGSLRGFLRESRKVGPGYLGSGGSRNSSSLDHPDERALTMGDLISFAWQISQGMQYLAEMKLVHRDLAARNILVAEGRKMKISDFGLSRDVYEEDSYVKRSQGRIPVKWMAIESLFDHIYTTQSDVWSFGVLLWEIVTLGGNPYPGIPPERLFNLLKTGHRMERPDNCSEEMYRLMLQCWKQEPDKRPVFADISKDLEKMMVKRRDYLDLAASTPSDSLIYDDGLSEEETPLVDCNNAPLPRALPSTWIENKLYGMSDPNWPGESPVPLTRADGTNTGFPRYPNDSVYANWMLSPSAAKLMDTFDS", "conditions": "kinase RET V804M; LanthaScreen Binding"}, "various kinases [7]": {"biological_target": "various kinases (Homo sapiens, UniProt P45984)", "conditions": "MAPK9 (JNK2)"}, "various kinases [8]": {"biological_target": "various kinases (Homo sapiens, UniProt Q9Y3S1)", "sequence (Q9Y3S1 whole entry)": "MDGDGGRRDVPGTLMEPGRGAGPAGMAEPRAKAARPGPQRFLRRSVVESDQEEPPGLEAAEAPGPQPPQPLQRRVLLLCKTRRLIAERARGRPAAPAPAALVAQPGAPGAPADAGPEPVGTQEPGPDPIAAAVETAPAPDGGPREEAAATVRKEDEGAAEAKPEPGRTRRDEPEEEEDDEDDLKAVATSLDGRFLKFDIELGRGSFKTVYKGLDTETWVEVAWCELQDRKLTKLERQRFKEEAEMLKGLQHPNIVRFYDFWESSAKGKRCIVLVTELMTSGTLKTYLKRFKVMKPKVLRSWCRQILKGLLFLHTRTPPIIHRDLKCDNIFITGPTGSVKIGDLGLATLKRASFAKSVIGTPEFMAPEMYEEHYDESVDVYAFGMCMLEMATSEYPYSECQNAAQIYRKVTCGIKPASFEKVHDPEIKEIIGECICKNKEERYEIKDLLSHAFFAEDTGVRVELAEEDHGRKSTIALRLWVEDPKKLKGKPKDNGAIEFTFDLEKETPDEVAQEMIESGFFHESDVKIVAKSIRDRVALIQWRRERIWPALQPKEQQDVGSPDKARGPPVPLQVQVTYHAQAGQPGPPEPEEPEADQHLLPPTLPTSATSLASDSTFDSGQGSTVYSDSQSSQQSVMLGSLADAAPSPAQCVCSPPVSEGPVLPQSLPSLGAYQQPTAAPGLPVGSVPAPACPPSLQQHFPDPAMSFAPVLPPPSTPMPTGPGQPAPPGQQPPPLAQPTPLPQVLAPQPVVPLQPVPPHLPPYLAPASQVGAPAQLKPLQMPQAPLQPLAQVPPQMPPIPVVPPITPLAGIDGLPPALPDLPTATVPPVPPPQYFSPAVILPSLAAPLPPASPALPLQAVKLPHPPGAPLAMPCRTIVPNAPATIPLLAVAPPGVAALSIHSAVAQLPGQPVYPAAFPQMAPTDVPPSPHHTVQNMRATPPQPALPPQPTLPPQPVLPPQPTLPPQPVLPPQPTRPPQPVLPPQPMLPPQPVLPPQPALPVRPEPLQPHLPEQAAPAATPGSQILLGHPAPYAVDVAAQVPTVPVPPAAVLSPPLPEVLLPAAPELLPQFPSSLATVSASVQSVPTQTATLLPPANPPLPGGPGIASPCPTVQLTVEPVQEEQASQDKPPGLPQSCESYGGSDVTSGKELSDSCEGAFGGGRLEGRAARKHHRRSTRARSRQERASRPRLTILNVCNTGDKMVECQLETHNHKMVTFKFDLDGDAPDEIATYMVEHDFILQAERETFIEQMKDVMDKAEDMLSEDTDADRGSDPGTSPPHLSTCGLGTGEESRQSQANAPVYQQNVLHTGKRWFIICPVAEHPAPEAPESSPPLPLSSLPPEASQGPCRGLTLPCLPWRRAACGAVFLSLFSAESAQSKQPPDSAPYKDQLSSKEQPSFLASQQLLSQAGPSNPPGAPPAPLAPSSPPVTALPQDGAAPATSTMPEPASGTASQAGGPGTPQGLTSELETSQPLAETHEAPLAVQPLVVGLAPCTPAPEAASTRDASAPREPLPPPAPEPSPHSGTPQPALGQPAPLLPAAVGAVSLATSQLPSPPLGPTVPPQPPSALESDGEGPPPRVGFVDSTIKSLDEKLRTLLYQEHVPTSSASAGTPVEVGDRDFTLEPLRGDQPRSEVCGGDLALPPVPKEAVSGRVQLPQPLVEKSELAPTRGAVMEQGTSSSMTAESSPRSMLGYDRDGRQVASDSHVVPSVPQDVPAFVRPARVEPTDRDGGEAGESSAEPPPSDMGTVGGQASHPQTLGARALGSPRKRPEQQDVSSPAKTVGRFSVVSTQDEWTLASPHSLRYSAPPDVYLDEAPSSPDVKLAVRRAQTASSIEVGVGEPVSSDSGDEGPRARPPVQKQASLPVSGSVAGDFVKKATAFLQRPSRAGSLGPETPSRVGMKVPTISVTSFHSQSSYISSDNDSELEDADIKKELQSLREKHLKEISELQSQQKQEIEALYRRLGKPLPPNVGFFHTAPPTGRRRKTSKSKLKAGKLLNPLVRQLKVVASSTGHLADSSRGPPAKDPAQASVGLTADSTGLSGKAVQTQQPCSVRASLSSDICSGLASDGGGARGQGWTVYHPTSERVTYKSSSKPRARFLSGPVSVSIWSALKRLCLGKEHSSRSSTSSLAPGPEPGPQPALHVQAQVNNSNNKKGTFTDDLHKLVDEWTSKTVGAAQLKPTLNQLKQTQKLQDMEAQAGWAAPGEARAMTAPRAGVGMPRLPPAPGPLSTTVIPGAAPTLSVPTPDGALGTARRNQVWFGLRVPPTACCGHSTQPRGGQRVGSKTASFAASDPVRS", "conditions": "kinase WNK2; LanthaScreen Binding"}, "various kinases [9]": {"biological_target": "T1, various kinases (Homo sapiens, UniProt P36897)", "T1 sequence (P36897 34-503)": "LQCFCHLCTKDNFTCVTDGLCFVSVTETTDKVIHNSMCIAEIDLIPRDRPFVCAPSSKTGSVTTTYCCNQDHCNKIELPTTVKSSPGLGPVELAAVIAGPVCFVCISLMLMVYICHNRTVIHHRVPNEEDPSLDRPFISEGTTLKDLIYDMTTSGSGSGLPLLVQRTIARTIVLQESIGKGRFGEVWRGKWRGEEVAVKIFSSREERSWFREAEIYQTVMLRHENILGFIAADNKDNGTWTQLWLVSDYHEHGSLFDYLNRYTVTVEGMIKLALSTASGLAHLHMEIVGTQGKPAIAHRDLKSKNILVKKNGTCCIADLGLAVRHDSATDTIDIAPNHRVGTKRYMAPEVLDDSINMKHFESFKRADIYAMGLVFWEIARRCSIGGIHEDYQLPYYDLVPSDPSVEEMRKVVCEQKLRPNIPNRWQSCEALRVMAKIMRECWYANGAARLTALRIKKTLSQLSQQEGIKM", "conditions": "kinase TGFBR1 (ALK5); LanthaScreen Binding"}, "various kinases [10]": {"biological_target": "various kinases (Homo sapiens, UniProt P36894)", "conditions": "BMPR1A (ALK3)"}, "various kinases [11]": {"biological_target": "various kinases (Homo sapiens, UniProt Q9UEW8)", "conditions": "kinase STK39 (STLK3); LanthaScreen Binding"}, "various kinases [12]": {"biological_target": "various kinases (Homo sapiens, UniProt Q9UF33)", "conditions": "EPHA6"}, "various kinases [13]": {"biological_target": "various kinases (Homo sapiens, UniProt Q9NY57)", "conditions": "kinase STK32B (YANK2); LanthaScreen Binding"}, "various kinases [14]": {"biological_target": "various kinases (Homo sapiens, UniProt Q9NRM7)", "conditions": "LATS2"}, "various kinases [15]": {"biological_target": "various kinases (Homo sapiens, UniProt Q8IVH8)", "conditions": "MAP4K3 (GLK)"}, "various kinases [16]": {"biological_target": "various kinases (Homo sapiens, UniProt P10721, D820E)", "conditions": "KIT D820E"}, "various kinases [17]": {"biological_target": "various kinases (Homo sapiens, UniProt P11362, V561M)", "conditions": "FGFR1 V561M"}, "various kinases [18]": {"biological_target": "various kinases (Homo sapiens, UniProt Q15569)", "sequence (Q15569 whole entry)": "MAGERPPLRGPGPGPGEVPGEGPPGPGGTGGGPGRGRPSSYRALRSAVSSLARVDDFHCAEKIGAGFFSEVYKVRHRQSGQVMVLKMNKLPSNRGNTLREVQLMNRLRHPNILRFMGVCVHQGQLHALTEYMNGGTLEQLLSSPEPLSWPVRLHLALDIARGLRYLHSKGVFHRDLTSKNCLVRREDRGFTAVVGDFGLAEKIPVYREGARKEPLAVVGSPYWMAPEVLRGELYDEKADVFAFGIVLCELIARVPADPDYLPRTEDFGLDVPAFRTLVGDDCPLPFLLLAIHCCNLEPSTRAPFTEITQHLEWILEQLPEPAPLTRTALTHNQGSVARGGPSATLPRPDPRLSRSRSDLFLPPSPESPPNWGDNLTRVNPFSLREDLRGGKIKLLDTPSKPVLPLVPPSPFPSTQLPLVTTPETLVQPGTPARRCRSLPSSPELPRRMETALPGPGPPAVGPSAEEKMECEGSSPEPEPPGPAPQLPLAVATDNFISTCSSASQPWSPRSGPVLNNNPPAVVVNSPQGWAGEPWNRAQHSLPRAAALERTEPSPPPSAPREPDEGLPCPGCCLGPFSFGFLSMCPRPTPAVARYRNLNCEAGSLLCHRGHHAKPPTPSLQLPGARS", "conditions": "kinase TESK1; LanthaScreen Binding"}, "various kinases [19]": {"biological_target": "various kinases (Homo sapiens, UniProt P07949, M918T)", "sequence (P07949 29-1114 M918T)": "as the sequence (P07949 29-1114 V804M) above, with M776V, M890T counted along it", "conditions": "kinase RET M918T; LanthaScreen Binding"}, "various kinases [20]": {"biological_target": "various kinases (Homo sapiens, UniProt Q8NEV4)", "conditions": "MYO3A (MYO3 alpha)"}, "various kinases [21]": {"biological_target": "various kinases (Homo sapiens, UniProt Q86YV6)", "conditions": "MYLK4"}, "various kinases [22]": {"biological_target": "various kinases (Homo sapiens, UniProt Q9BWU1)"}, "various kinases [23]": {"biological_target": "various kinases (Homo sapiens, UniProt P45985)", "conditions": "MAP2K4 (MEK4)"}, "various kinases [24]": {"biological_target": "various kinases (Homo sapiens, UniProt Q9Y2H1)", "conditions": "kinase STK38L (NDR2); LanthaScreen Binding"}, "various kinases [25]": {"biological_target": "various kinases (Homo sapiens, UniProt Q8N5S9)", "conditions": "CAMKK1 (CAMKKA)"}, "various kinases [26]": {"biological_target": "various kinases (Homo sapiens, UniProt O00238)", "conditions": "BMPR1B (ALK6)"}, "various kinases [27]": {"biological_target": "various kinases (Homo sapiens, UniProt Q15835)", "conditions": "GRK1"}, "various kinases [28]": {"biological_target": "various kinases (Homo sapiens, UniProt P10721, Y823D)", "conditions": "KIT Y823D"}, "various kinases [29]": {"biological_target": "various kinases (Homo sapiens, UniProt P57058)", "conditions": "HUNK"}, "various kinases [30]": {"biological_target": "various kinases (Homo sapiens, UniProt Q8TD08)", "conditions": "MAPK15 (ERK7)"}, "various kinases [31]": {"biological_target": "various kinases (Homo sapiens, UniProt Q00536)", "conditions": "CDK16 (PCTK1)/cyclin Y"}},
  "note": "“And” between values parts separate entries of the source, which are not always exact repeats. Equal values may be shown once.",
  "data": [
    {"smiles": "COc1ccc2c(c1)[C@]1(C[C@H]1c1ccc3c(/C=C/c4ccc(CN5C[C@@H](C)O[C@@H](C)C5)cc4)n[nH]c3c1)C(=O)N2", "note": "[CFI-400945]", "values": [
      {"measurement": "% Inhibition", "setting": "various kinases [1]", "result": "-1% and -4%"},
      {"measurement": "% Inhibition Average", "setting": "various kinases [2]", "result": 50, "unit": "%"},
      {"measurement": "% Inhibition Duplicate #1", "setting": "various kinases [2]", "result": 48, "unit": "%"},
      {"measurement": "% Inhibition Duplicate #2", "setting": "various kinases [2]", "result": 51, "unit": "%"},
      {"measurement": "% Inhibition", "setting": "various kinases [3]", "result": "17% and 9%"},
      {"measurement": "% Inhibition", "setting": "various kinases [4]", "result": "24% and 17%"},
      {"measurement": "% Inhibition", "setting": "various kinases [5]", "result": "9% and 6%"},
      {"measurement": "% Inhibition Average", "setting": "various kinases [6]", "result": 34, "unit": "%"},
      {"measurement": "% Inhibition Duplicate #1", "setting": "various kinases [6]", "result": 29, "unit": "%"},
      {"measurement": "% Inhibition Duplicate #2", "setting": "various kinases [6]", "result": 39, "unit": "%"},
      {"measurement": "% Inhibition", "setting": "various kinases [7]", "result": "-4% and -2%"},
      {"measurement": "% Inhibition Average", "setting": "various kinases [8]", "result": -3, "unit": "%"},
      {"measurement": "% Inhibition Duplicate #1", "setting": "various kinases [8]", "result": -6, "unit": "%"},
      {"measurement": "% Inhibition Duplicate #2", "setting": "various kinases [8]", "result": 0, "unit": "%"},
      {"measurement": "% Inhibition Average", "setting": "various kinases [9]", "result": 3, "unit": "%"},
      {"measurement": "% Inhibition Duplicate #1", "setting": "various kinases [9]", "result": 4, "unit": "%"},
      {"measurement": "% Inhibition Duplicate #2", "setting": "various kinases [9]", "result": 3, "unit": "%"},
      {"measurement": "% Inhibition", "setting": "various kinases [10]", "result": "-4% and 3%"},
      {"measurement": "% Inhibition Average", "setting": "various kinases [11]", "result": 20, "unit": "%"},
      {"measurement": "% Inhibition Duplicate #1", "setting": "various kinases [11]", "result": 18, "unit": "%"},
      {"measurement": "% Inhibition Duplicate #2", "setting": "various kinases [11]", "result": 22, "unit": "%"},
      {"measurement": "% Inhibition", "setting": "various kinases [12]", "result": "18% and 24%"},
      {"measurement": "% Inhibition Average", "setting": "various kinases [13]", "result": 4, "unit": "%"},
      {"measurement": "% Inhibition Duplicate #1", "setting": "various kinases [13]", "result": -1, "unit": "%"},
      {"measurement": "% Inhibition Duplicate #2", "setting": "various kinases [13]", "result": 9, "unit": "%"},
      {"measurement": "% Inhibition", "setting": "various kinases [14]", "result": "16% and 14%"},
      {"measurement": "% Inhibition", "setting": "various kinases [15]", "result": "23% and 19%"},
      {"measurement": "% Inhibition", "setting": "various kinases [16]", "result": "3% and 4%"},
      {"measurement": "% Inhibition", "setting": "various kinases [17]", "result": "55% and 57%"},
      {"measurement": "% Inhibition Average", "setting": "various kinases [18]", "result": 12, "unit": "%"},
      {"measurement": "% Inhibition Duplicate #1", "setting": "various kinases [18]", "result": 13, "unit": "%"},
      {"measurement": "% Inhibition Duplicate #2", "setting": "various kinases [18]", "result": 11, "unit": "%"},
      {"measurement": "% Inhibition Average", "setting": "various kinases [19]", "result": 27, "unit": "%"},
      {"measurement": "% Inhibition Duplicate #1", "setting": "various kinases [19]", "result": 26, "unit": "%"},
      {"measurement": "% Inhibition Duplicate #2", "setting": "various kinases [19]", "result": 28, "unit": "%"},
      {"measurement": "% Inhibition", "setting": "various kinases [20]", "result": 8, "unit": "%"},
      {"measurement": "% Inhibition", "setting": "various kinases [21]", "result": "7% and 13%"},
      {"measurement": "% Inhibition", "setting": "various kinases [22]; CDK11 (Inactive)", "result": "-3% and -1%"},
      {"measurement": "% Inhibition", "setting": "various kinases [22]; CDK11/cyclin C", "result": "16% and 13%"},
      {"measurement": "% Inhibition", "setting": "various kinases [23]", "result": "7% and 3%"},
      {"measurement": "% Inhibition Average", "setting": "various kinases [24]", "result": 16, "unit": "%"},
      {"measurement": "% Inhibition Duplicate #1", "setting": "various kinases [24]", "result": 10, "unit": "%"},
      {"measurement": "% Inhibition Duplicate #2", "setting": "various kinases [24]", "result": 21, "unit": "%"},
      {"measurement": "% Inhibition", "setting": "various kinases [25]", "result": "-4% and -3%"},
      {"measurement": "% Inhibition", "setting": "various kinases [26]", "result": "5% and 8%"},
      {"measurement": "% Inhibition", "setting": "various kinases [27]", "result": "22% and 13%"},
      {"measurement": "% Inhibition", "setting": "various kinases [28]", "result": "4% and -6%"},
      {"measurement": "% Inhibition", "setting": "various kinases [29]", "result": "21% and 22%"},
      {"measurement": "% Inhibition", "setting": "various kinases [30]", "result": "11% and 8%"},
      {"measurement": "% Inhibition", "setting": "various kinases [31]", "result": "10% and 9%"}
    ]}
  ]
}
